Here are results for four compounds from patent US10058587B2, “Peptide composition for cancer treatment by inhibiting TRPV6 calcium channel activity” (priority 2008, dated 2018).

Where no end group is shown, it is not given here.

Series [1] can be described thus: Tissue distribution of Cy5.5-labeled peptides by optical imaging. The format is in vivo, CD1 mice. The settings on record: four hours after i.v. injection of 100 ug. From the text:
SorC13 and SorC27 were labeled with the near-infrared probe, Cy5.5. SorC13 was labeled at lysine-1 and lysine-8 with the infrared fluorescent probe cy5.5 through reaction with Cy5.5 NHS ester-activated process. SorC27 was labeled at the single cysteine thiol with Cy5.5 maleamide-activated reaction. The labeled peptides were purified with a combination of size exclusion chromatography and HPLC. The label, Cy5.5, fluoresces in the infra-red region after excitation with a scanning laser. The low energy laser is able to penetrate the animal to about 1 cm and, thus, by scanning prone and supine positions, the presence of the tagged peptides can be quantified in three dimensions.
Cy5.5-labeled peptides were intravenously injected into CD1 mice (4 for each compound) at 100 ug per animal in 100 uL, and animals were imaged live using an optical imaging system, Optix eXplorer (GE Healthcare Systems) at different time points (30 min, 90 min, 4 h). […] The bio-distribution of the labeled peptides in different organs and tissues were visualized and relatively quantified by optical imaging analysis. This protocol allows for visualization of the location of the labeled peptides and how the location changes over time. […] Nodes that accumulated the labeled peptides are indicated by line 1 (superfacial cervical nodes), line 4 (axillary nodes), line 5 (brachial nodes), line 8 (mesenteric nodes) and line 9 (inguinal nodes). FIGS. 8, 9 and 10 show the amounts of labeled peptides in various organs ex vivo.

For the next series, the target named is T1, human TRPV6b (Homo sapiens, UniProt Q9H1D0).
T1 construct: expressed in transfected cells; host or cells: LnCaP (ATCC CRL-1740), human lymph node prostate cancer cells
T1 sequence (Q9H1D0 41-765 limits assumed): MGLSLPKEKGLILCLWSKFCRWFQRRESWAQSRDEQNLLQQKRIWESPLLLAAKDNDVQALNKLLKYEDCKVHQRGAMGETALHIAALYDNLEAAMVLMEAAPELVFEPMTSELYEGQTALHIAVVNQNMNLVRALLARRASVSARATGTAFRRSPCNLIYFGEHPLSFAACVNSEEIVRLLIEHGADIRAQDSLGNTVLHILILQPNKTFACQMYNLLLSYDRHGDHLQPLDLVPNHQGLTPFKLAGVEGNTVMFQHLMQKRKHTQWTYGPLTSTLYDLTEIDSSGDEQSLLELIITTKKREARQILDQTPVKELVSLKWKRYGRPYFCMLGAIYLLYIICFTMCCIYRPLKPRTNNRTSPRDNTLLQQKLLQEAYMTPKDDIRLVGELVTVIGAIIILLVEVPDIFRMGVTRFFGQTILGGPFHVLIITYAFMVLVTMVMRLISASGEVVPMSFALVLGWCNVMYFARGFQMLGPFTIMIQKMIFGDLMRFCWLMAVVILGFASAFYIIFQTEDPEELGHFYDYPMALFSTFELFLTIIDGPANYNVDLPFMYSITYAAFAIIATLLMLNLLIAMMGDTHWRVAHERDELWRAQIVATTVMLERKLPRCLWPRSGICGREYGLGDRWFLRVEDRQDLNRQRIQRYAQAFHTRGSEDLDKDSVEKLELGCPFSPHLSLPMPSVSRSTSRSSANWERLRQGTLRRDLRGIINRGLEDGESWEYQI
In words: Whole-cell patch clamp of calcium store operated current (ISOC) through TRPV6 in transfected LnCaP cells. The class given is cell-based. How it is done: An expression vector (pCAGS-IRES-hTRPV6b) (Bodding et al. 2003) containing the nucleotide code for human TRPV6b was transfected into and expressed by human lymph node prostate cancer (LnCaP, ATCC CRL-1740). Patch clamping with whole-cell current acquisition was used to measure the calcium current through this channel. Cells were treated and calcium store operated current (ISOC) was measured with either SorC13 (n=90) or SorC27 (n=30) in a closed-circuit perfusion for 3 min at each of cumulative concentrations of 0 (baseline), 100 nM, 500 nM 1 uM, 30 uM and 100 uM. Washout perfusion was done at 2 mL/min for 3 min. […] Further, both C-peptides are very strong inhibitors of calcium current through the TRPV6 channel with inhibition constants in the 100 nM range.
(Patch clamp records ionic current or voltage across a cell membrane.)

For series [2], the system named is T47D breast cancer xenografts. In words: T-47D breast cancer xenograft, SorC13 with Paclitaxel (Example 27). The class given is in vivo, NOD/SCID mice. The settings on record: for % ΔT/ΔC (tumor volume normalized to control) / Mean tumour volume: alone or with SorC13; for Mean tumour volume: after 12-day rest post-treatment; for Mean tumor volume: day 12 of treatment, alone or with SorC13 300 mg/kg. Here is the method: Tumor volumes (V) were calculated by caliper measurement using standard measurements of the width (W), length (L) and thickness (T) of tumors. Animals were randomized into treatment groups so that the median tumor volumes of each group were similar at the start of dosing. Percentage ΔT/ΔC values, as a measure of efficacy, were determined where ΔC refers to change in volume of control or untreated tumor, and ΔT refers to change in volume of treated tumor.
Animals were intraperitoneally (i.p.) injected with the vehicular control, or the low, medium or high doses of CAT or CAT and SorC13. Mice received low medium or high doses of CAT or CAT and SorC13 by i.p. injection every day for 12 days or CAT injections as set out in Table 10. Paclitaxel was injected first, followed by carboplatin 30 minutes later and then SorC13. The tumor volume and body weights were measured every day. As well, general health of the animals was monitored every day.
The human […] breast cancer cell line T-47D (ATCC #HTB-133), was cultured in growth media prepared with ATCC complete growth medium. The base medium for the T-47D cell line is ATCC-formulated RPMI-1640 Medium. The complete growth medium is supplemented with 0.2 Units/ml bovine insulin and fetal bovine serum to a final concentration of 10% (v/v). Cells were cultured at 37° C. in an atmosphere of 95% air and 5% carbon dioxide with sub-culturing done according to ATCC guidelines.
The cell preparation, formulation, implantation, measurement and treatment procedures were otherwise as described in Example 26 and Table 10 but with Paclitaxel at low (6 mg/kg), medium (10 mg/kg) and high (16 mg/kg) doses.

Consider “SorC27-Cy5.5: SorC27 labeled at the single cysteine thiol with Cy5.5 (EGKLSSNDTEGGLC(Cy5.5)KEFLHPSKVDLPR)”, for which the “accumulation at lymph nodes (superfacial cervical, axillary, branchial, mesenteric, inguinal)” value in series [1] is “Significant accumulation”.
Turning to `C#CCN1C(C)=C(C(=O)OC)C(c2cccc([N+](=O)[O-])c2)C(C(=O)OCC)=C1C` (stereo not drawn) [MRS-1845, N-propargylnitrendipene, reference compound], at human TRPV6b (positive control at 5 uM), the “inhibition of the calcium current” value is “demonstrated inhibition of the calcium current”.
For `CC(=O)O[C@H]1C(=O)[C@@]2(C)[C@H]([C@H](OC(=O)c3ccccc3)[C@]3(O)C[C@H](OC(=O)[C@H](O)[C@@H](NC(=O)c4ccccc4)c4ccccc4)C(C)=C1C3(C)C)[C@]1(OC(C)=O)CO[C@@H]1C[C@@H]2O` [Paclitaxel], the “% ΔT/ΔC (tumor volume normalized to control)” value in series [2] (Day 6, high Paclitaxel (16 mg/kg)) is on record as 17.8%; in series [2] (Day 6, low Paclitaxel (6 mg/kg)), 26.0%; in series [2] (Day 6, medium Paclitaxel (10 mg/kg)), −4.0%; in series [2] (Day 12, high Paclitaxel (16 mg/kg)) it was −96.4%; in series [2] (Day 12, low Paclitaxel (6 mg/kg)) it was 16.3%; in series [2] (Day 12, medium Paclitaxel (10 mg/kg)), −45.9%. In addition, the “% ΔT/ΔC (tumor volume normalized to control)” value in series [2] (Day 18 (rest period), high Paclitaxel) was −112.4%; in series [2] (Day 18 (rest period), low Paclitaxel), 46.0%; in series [2] (Day 18 (rest period), medium Paclitaxel), −56.9%; in series [2] (Day 24 (rest period), high Paclitaxel) it was −88.4%; in series [2] (Day 24 (rest period), low Paclitaxel), 33.3%; in series [2] (Day 24 (rest period), medium Paclitaxel), −33.2%. Besides, the Mean tumour volume in series [2] (high Paclitaxel (16 mg/kg)) turned out to be 20.24 mm^3; in series [2] (low Paclitaxel (6 mg/kg)), 52.08 mm^3; in series [2] (medium Paclitaxel (10 mg/kg)) it was 35.52 mm^3. The Mean tumor volume is recorded as 26.47 mm^3 in series [2] (high Paclitaxel (16 mg/kg)), 46.37 mm^3 in series [2] (low Paclitaxel (6 mg/kg)) and 36.23 mm^3 in series [2] (medium Paclitaxel (10 mg/kg)).
Regarding HPSKVDLPR [SorC9, HPSKVDLPR], the Kd on human TRPV6b was about 90 nM.

As usually defined, the Kd is the free concentration of one partner at which half of the binding sites on the other are occupied at equilibrium, for simple one-to-one binding.
